For series [1] the following is noted: amorphous form compared with the crystalline form; cited from earlier work.
A further series has as its target T1, 5-HT2C (Homo sapiens, UniProt P28335).
T1 sequence (P28335 33-458): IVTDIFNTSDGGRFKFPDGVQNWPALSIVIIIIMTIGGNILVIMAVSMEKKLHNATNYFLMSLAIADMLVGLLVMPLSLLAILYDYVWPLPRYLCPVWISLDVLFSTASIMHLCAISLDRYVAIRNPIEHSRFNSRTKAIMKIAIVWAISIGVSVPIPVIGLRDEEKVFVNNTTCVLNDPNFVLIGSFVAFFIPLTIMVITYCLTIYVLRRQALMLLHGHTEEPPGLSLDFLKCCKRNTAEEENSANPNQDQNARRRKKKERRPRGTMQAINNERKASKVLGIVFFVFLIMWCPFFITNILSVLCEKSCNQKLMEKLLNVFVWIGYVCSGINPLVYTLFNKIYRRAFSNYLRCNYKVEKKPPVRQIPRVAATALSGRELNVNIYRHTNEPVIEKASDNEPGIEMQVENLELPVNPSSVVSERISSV
The note with it: cited from earlier work.

A short description of series [2]: Stability of solutions in 2,2,2-trifluoroethanol. In kind it is physicochemical. The note with it: solutions in TFE.
Another series concerns the target H1 histaminergic (Homo sapiens, UniProt P35367). The note with it: cited from earlier work.
The nature of series [3]: Glass transition temperature by mDSC. In kind it is physicochemical. To be noted: ITI-007 free base dispersions; Yes/No.
In another series the test system is muscarinic receptors. To be noted: cited from earlier work.
For series [4] the following is noted: free base form; cited from earlier work.
Series [5] can be described thus: Preliminary screen of lyophilized dispersions by XRPD and appearance. In kind it is physicochemical. To be noted: ITI-007 free base dispersions, as generated. How it is done:
X-ray powder diffraction (XRPD): The X-ray powder diffraction studies are performed using a PANalytical X′Pert PRO MPD diffractometer using an incident beam of Cu radiation produced using an Optix long, fine-focus source. An elliptically graded multilayer mirror is used to focus Cu Kα X-ray radiation through the specimen and onto the detector. Prior to analysis, a silicon specimen is analyzed to verify the observed position of the Si (111) peak (consistent with the NIST-certified position, NIST SM 640e). A specimen of the sample is sandwiched between 3-micron thick films and analyzed in transmission geometry. A beam-stop, short antiscatter extension, and antiscatter knife edge is used to minimize the background generated by the air. Soller slits for the incident and diffracted beams are used to minimize broadening from axial divergence. Diffraction patterns are collected using a scanning position-sensitive detector (X′Celerator) located 240 mm from the specimen. Data Collector software v. 2.2b is used for analysis.
Solutions are initially frozen in a dry ice/acetone bath, and then placed in a freeze dryer with the shelf pre-cooled to −75° C. […]
Solid dispersions obtained from Example 1 are first evaluated by XRPD to determine if they are amorphous. […]
The same excipients are evaluated as described in Example 1.

Chain of H1 histaminergic (P35367 whole entry): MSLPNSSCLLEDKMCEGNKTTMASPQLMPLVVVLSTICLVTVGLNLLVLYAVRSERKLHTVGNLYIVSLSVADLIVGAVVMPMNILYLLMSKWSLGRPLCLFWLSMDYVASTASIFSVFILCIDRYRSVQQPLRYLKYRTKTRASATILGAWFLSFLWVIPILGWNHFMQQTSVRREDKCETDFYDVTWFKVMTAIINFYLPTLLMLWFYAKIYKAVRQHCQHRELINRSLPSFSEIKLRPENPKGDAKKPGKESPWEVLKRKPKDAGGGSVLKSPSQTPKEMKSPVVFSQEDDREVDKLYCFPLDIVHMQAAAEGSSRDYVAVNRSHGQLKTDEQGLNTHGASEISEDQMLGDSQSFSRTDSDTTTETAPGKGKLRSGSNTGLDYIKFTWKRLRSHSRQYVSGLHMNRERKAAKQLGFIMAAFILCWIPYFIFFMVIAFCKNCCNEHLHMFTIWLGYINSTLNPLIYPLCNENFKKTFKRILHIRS

`CO/N=C(\C(=O)N[C@@H]1C(=O)N2C(C(=O)OC(C)OC(C)=O)=C(COC(N)=O)CS[C@H]12)c1ccco1` (some centres unmarked) [Cefuroxime axetil]: in series [1], the bioavailability entry is “higher bioavailability”.

Regarding `CN1CCN2c3c(cccc31)[C@@H]1CN(CCCC(=O)c3ccc(F)cc3)CC[C@@H]12` [ITI-007, 1-(4-fluoro-phenyl)-4-((6bR,10aS)-3-methyl-2,3,6b,9,10,10a-hexahydro-1H,7H-pyrido[3′,4′:4,5]pyrrolo[1,2,3-de]quinoxalin-8-yl)-butan-1-one], the binding result at 5-HT2C, at H1 histaminergic and in the series with muscarinic receptors was “negligible binding” each time. In series [2], the stability of solution entry is recorded as “rapidly discolor due to decomposition of the active”. Further, the “Tg > 75° C.” value in series [3] is given as “No”. Also, the solubility in water entry in series [4] was “poor solubility”. The “X-ray Amorphous Solids?” value in series [5] is “No”.

Source of the values: patent US12472178B2, “Amorphous solid dispersions” (INTRA-CELLULAR THERAPIES, INC., priority 2016, dated 2025).
